Measured values as given in patent US10413632B2, “Cement products and methods of making and using the same” (Pioneer Surgical Technology, Inc., priority 2007, dated 2019).

Text: The side chain amino groups of certain amino acid can serve as nucleophiles for the Michael addition to enones. Generally, amino acids are flaky or crystalline solids at room temperature, thus, they should be dissolved in a liquid to effectively participate in the set reaction.

Compared with Nc1cc(O)nc(N)n1 [DAHP, 2,4-diamino-6-hydroxypyrimidine], Nc1nc(N)c2nc[nH]c2n1 [DAP, diaminopurine] is higher in “solubility (w/w) in PEI” value: 13.8% for the first, 18.8% for the second.

First: N[C@@H](Cc1c[nH]c2ccccc12)C(=O)O [TRP, L-Tryptophan]
Second: N[C@@H](Cc1ccccc1)C(=O)O [PHE, L-phenylalanine]
The “solubility (w/w) in PEI” value of the first is lower: 46.46% for the first, 61.24% for the second.

With N[C@@H](CS)C(=O)O [CYS, L-cysteine] the “solubility (w/w) in PEI” value was 18.2%.

Going from NCCCC[C@H](N)C(=O)O [LYS, L-Lysine] to N[C@@H](CS)C(=O)O [CYS, L-cysteine], the “solubility (w/w) in DAB” value rises from 16.1% to 19.5%.

First: N[C@@H](Cc1c[nH]c2ccccc12)C(=O)O [TRP, L-Tryptophan]
Second: N[C@@H](Cc1ccccc1)C(=O)O [PHE, L-phenylalanine]
The “solubility (w/w) in DAB” value of the first is higher: 29.4% for the first, 28% for the second.
